Earlier results in patent US4431807A, “4-Methyl-5-(unsubstituted and substituted phenoxy)-6-methoxy-8-(aminoalkylamino)quinolines” (priority 1981, dated 1984).
Where two headings read alike, the source gives them in different places.

Assays:
[1] = system: Plasmodium cynomolgi; details: prior art compounds; cited from earlier work
[2] = system: Plasmodium berghei; details: cited from earlier work; for Δ MST / Cures: 5 mice, Table I

COc1cc(NC(C)CCCN)c2ncccc2c1Oc1ccc(F)cc1 (stereo not shown) [5-(4-Fluorophenoxy)Primaquine, 5-(4-fluorophenoxy)primaquine]
Radical curative activity relative to primaquine [1]: no more active than primaquine
Δ MST ([2]; 80 mg/kg): 7.0 days
Δ MST ([2]; 160 mg/kg): 9 days
Cures ([2]; 320 mg/kg): 5C
Cures ([2]; 640 mg/kg): 5C
Suppressive activity ([2]; 320 and 640 mg/kg): active and non-toxic
Suppressive activity relative to mefloquine ([2]; prior art compound): distinctly inferior
